# Entries after “also recorded” stand apart in the source; their conditions may differ. Where two headings read alike, the source gives them in different places. Non-standard residues stand in square brackets, D forms with d. Residues, ends and D or L forms follow the SMILES beside them. *: point of attachment. Sta = CC(C)C[C@H](N)[C@@H](O)CC(=O)O; pNA = O=[N+]([O-])c1ccc(N*)cc1; Isovaleryl = CC(C)CC(=O)*; Cbz = O=C(OCc1ccccc1)*
# Legend:
# [1] = target: T1, purified recombinant Hip1 (Mycobacterium tuberculosis, UniProt P9WHR3); conditions: cited from earlier work
# T1 sequence (P9WHR3 31-520): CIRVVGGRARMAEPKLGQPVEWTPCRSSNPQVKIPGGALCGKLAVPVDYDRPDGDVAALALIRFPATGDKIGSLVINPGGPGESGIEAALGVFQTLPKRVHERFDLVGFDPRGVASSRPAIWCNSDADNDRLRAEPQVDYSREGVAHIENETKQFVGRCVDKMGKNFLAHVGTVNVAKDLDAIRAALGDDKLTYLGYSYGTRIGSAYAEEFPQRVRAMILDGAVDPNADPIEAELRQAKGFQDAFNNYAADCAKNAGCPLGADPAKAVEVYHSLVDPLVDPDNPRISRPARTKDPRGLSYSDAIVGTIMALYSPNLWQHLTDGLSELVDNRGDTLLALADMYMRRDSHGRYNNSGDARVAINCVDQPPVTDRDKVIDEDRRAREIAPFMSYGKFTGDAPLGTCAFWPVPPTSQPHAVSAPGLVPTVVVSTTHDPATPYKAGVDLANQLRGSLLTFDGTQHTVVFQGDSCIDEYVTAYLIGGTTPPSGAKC
# M. bovis cells [2] = type: cell-based, Mycobacterium bovis
# [3] = Cytotoxicity towards RAW macrophages; type: cell-based; conditions: mouse, read-out: TC50, cytotoxicity towards RAW macrophages
# Description: (§1) Cells were seeded in plates and incubated overnight in a humidified incubator at 37° C., 5% CO2. […] After 72-hours of incubation, CellTiter-Glo® reagent (Promega) was added to plates and the relative luminescent units (RLU) were measured using a Synergy 4 plate reader (Biotek). […] Growth inhibition curves were fitted using the Levenberg-Marquardt algorithm. The IC50 was defined as the compound concentration that produced 50% of the growth inhibitory response.
# [4] = Cytotoxicity towards HepG2 hepatocytes; type: cell-based; conditions: human, read-out: TC50, cytotoxicity towards HepG2 hepatocytes
# Description: as §1
# THP1 macrophages = assay: Cytotoxicity against THP1 macrophages; type: cell-based
# Mtb in THP-1 macrophages = assay: Antitubercular activity (Mtb survival) in THP-1 macrophages; type: cell-based, Mycobacterium tuberculosis; conditions: for IC50: Mycobacterium tuberculosis, THP1MACROPHAGES
# Text: FIG. 18A depicts time-dependent antitubercular activity in THP-1 macrophages. FIG. 18B depicts the average of the Hill slope values corresponding to the IC50 values used to plot the mean IC50 in FIG. 18A.
# M. bovis cells [5] = type: cell-based, Mycobacterium bovis; conditions: cell culture
# [6] = THP-1, 24 h, read-out: IC50 Mean ± SEM
# [7] = THP-1, 72 h, read-out: IC50 Mean ± SEM
# [8] = THP-1, 72 h, read-out: IC50 Range
# [9] = THP-1 macrophages, time point 48 h, read-out: IC50 Mean ± SEM
# [10] = THP-1 macrophages, time point 48 h, read-out: IC50 Range
smiles,measurement,setting,value
CC(C)C[C@H](NC(=O)[C@@H](NC(=O)N[C@@H](Cc1ccccc1)C(=O)O)[C@@H]1CCN=C(N)N1)C(=O)N[C@H](C=O)Cc1ccccc1 [chymostatin],Inhibition of Hip1 (studies have shown),[1],inhibit Hip1
"O=S(=O)(F)Cc1ccccc1 [PMSF, phenylmethylsulfonyl fluoride]",Inhibition of cleavage of UFNG1 by M. bovis cells,M. bovis cells [2],did not significantly inhibit cleavage
same,Inhibition of Hip1 (studies have shown),[1],not an effective inhibitor of purified recombinant Hip1; also recorded: poor inhibitor of Hip1
COC(=O)C(=O)[C@H](CC(C)C)NC(=O)[C@H](CCCCN)NC(=O)[C@H](Cc1ccccc1)NC(=O)OCc1ccccc1 [Cbz-Phe-Lys-Leu-CO—CO2Me],CC50 at 72 h,[3],> 100 µM
same,CC50 at 72 h,[4],> 100 µM
same,Cytotoxicity against THP1 macrophages,THP1 macrophages,does not have significant cytotoxicity
same,IC50,Mtb in THP-1 macrophages; [6],69.7 ± 18.7 µM
same,IC50,Mtb in THP-1 macrophages; [7],13.9 ± 4.86 µM
same,IC50,Mtb in THP-1 macrophages; [8],8.24 to 23.6 µM
same,IC50,Mtb in THP-1 macrophages; [9],19.6 ± 4.98 µM
same,IC50,Mtb in THP-1 macrophages; [10],12.7 to 29.3 µM
same,Mtb survival in THP1 macrophages,Mtb in THP-1 macrophages,effectively reduces Mtb survival
same,IC50 Range,"Mtb in THP-1 macrophages; THP-1 macrophages, time point 24 h",51.09 to 8.38 μM
same,Inhibition of cleavage of UFNG1 by M. bovis cells,M. bovis cells [2]; FRET substrate UFNG1,most significant inhibition
"COC(=O)C(=O)[C@H](C[C@@H]1CCNC1=O)NC(=O)[C@H](CCCCN)NC(=O)[C@H](Cc1ccccc1)NC(=O)OCc1ccccc1 [Inhibitor Compound 2, Cbz-Phe-Lys-Glnlac-CO—CO2Me]",Cytotoxicity against THP1 macrophages,THP1 macrophages,does not have significant cytotoxicity
same,IC50,Mtb in THP-1 macrophages; [6],104 ± 39.1 µM
same,IC50,"Mtb in THP-1 macrophages; THP-1, 24 h, read-out: IC50 Range",44.4 to 178 µM
same,IC50,Mtb in THP-1 macrophages; [7],51.8 ± 14.7 µM
same,IC50,Mtb in THP-1 macrophages; [8],25.6 to 53.3 µM
same,IC50,Mtb in THP-1 macrophages; [9],58.4 ± 1.15 µM
same,IC50,Mtb in THP-1 macrophages; [10],57.3 to 59.6 µM
same,Mtb survival in THP1 macrophages,Mtb in THP-1 macrophages,effectively reduces Mtb survival
same,Inhibition of cleavage of UFNG1 by M. bovis cells,M. bovis cells [2]; FRET substrate UFNG1,most significant inhibition
CC(C)CC(=O)N[C@H](C(=O)N[C@H](C(=O)N[C@@H](CC(C)C)[C@@H](O)CC(=O)N[C@@H](C)C(=O)N[C@@H](CC(C)C)[C@@H](O)CC(=O)O)C(C)C)C(C)C [pepstatin] (Isovaleryl-VV[Sta]A[Sta]-OH),Inhibition of cleavage of UFNG1 by M. bovis cells,M. bovis cells [2]; FRET substrate UFNG1,do not inhibit cleavage of UFNG1 appreciably
CC(=O)N[C@@H](CC(C)C)C(=O)N[C@@H](CC(C)C)C(=O)N[C@H](C=O)CCCNC(=N)N [leupeptin],Inhibition of Hip1 (studies have shown),[1],inhibit Hip1
CC(C)C[C@H](NC(=O)[C@H](CCCCN)NC(=O)[C@H](Cc1ccccc1)NC(=O)OCc1ccccc1)C(=O)Nc1ccc([N+](=O)[O-])cc1 [Cbz-Phe-Lys-Leu-pNa] (Cbz-Phe-Lys-Leu-pNA),Cleavage of substrate by M. bovis cells,M. bovis cells [5],cleaved by M. bovis
NCCc1ccc(S(=O)(=O)F)cc1 [AEBSF],Inhibition of cleavage of UFNG1 by M. bovis cells,M. bovis cells [2],most significant inhibition
O=C(O)CN(CCN(CC(=O)O)CC(=O)O)CC(=O)O [EDTA],Inhibition of cleavage of UFNG1 by M. bovis cells,M. bovis cells [2]; FRET substrate UFNG1,do not inhibit cleavage of UFNG1 appreciably
CC(C)C[C@H](NC(=O)[C@H]1O[C@@H]1C(=O)O)C(=O)NCCCCN=C(N)N [E-64],Inhibition of cleavage of UFNG1 by M. bovis cells,M. bovis cells [2]; FRET substrate UFNG1,do not inhibit cleavage of UFNG1 appreciably

# From patent US20250237649A1 (priority 2021, published 2025)
